Data published in ChEMBL document CHEMBL4257475, “Identification of non-substrate-like glycosyltransferase inhibitors from library screening: pitfalls & hits” (Medchemcomm, 2018).
The source made the active and inactive calls. The calls are words filed in the database; no cut-off is given here.

Experiments:
[1] = biological target: T1, LgtC (Neisseria meningitidis) (UniProt Q93EK7); test: Inhibition of Neisseria meningitidis LgtC at 100 uM using UDP-Gal donor substrate incubated for 20 mins by malachite green reagent based colorimetric method relative to control
T1 sequence (whole entry): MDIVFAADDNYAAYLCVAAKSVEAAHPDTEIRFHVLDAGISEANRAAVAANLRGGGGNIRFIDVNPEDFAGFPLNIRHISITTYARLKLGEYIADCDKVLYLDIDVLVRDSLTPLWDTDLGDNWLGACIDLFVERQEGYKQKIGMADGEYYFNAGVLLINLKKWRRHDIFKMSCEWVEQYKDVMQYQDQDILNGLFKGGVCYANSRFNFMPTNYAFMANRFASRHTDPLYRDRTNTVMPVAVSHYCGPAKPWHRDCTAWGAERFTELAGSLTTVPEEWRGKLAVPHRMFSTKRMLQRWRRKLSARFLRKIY

[2] = biological target: T1, LgtC (Neisseria meningitidis); test: Inhibition of Neisseria meningitidis LgtC at 100 uM using UDP-Gal donor substrate incubated for 20 mins followed by 5 fold dilution by malachite green reagent based colorimetric method relative to control
[3] = biological target: T1, LgtC (Neisseria meningitidis); test: Inhibition of Neisseria meningitidis LgtC at 50 uM using UDP-Gal donor substrate incubated for 20 mins by malachite green reagent based colorimetric method relative to control
[4] = biological target: T1, LgtC (Neisseria meningitidis); test: (§1) Inhibition of Neisseria meningitidis LgtC using UDP-Gal donor substrate incubated for 20 mins by malachite green reagent based colorimetric method
[5] = biological target: Intestinal-type alkaline phosphatase (Bos taurus) (UniProt P19111); test: Inhibition of calf intestinal phosphatase up to 100 uM using UDP as substrate measured after 20 mins by malachite green reagent based colorimetric method
[6] = Effect on inorganic phosphate reaction with malachite green reagent at 1 mM after 20 mins by colorimetric method; format: functional
[7] = biological target: T2, LgtC (Neisseria meningitidis, UniProt Q93EK7); test: as §1
T2 sequence (Q93EK7 whole entry): T1 sequence (whole entry)

[8] = Effect on inorganic phosphate reaction with malachite green reagent up to 100 uM after 20 mins by colorimetric method; format: functional
[9] = system: Pasteurella multocida; test: Inhibition of recombinant Pasteurella multocida alpha-(2,3)-sialyltransferase expressed in Escherichia coli BL21 up to 100 uM using CMP-Neu5Ac donor substrate incubated for 20 mins by malachite reagent based colorimetric method
[10] = biological target: T3, Galactoside alpha-(1,2)-fucosyltransferase 2 (Homo sapiens) (UniProt Q10981); test: Inhibition of recombinant human C-terminal His6-tagged FUT2 (Ile35 to His343 residues) expressed in HEK293 cells at 100 uM using GDP-Fuc donor substrate measured after 20 mins by malachite green reagent based colorimetric method; format: cell-based
T3 sequence (whole entry): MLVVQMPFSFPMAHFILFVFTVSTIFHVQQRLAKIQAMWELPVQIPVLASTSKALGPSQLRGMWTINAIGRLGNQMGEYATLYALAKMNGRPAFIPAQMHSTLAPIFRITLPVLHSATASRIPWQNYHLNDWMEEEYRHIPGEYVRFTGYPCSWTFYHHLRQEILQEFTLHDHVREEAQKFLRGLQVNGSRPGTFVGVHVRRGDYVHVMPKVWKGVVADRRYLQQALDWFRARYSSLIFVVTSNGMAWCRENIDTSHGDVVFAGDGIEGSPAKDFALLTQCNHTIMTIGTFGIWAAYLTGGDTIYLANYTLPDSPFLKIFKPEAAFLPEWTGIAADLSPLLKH

Sequence of Intestinal-type alkaline phosphatase (Bos taurus) (P19111 20-506 limits assumed): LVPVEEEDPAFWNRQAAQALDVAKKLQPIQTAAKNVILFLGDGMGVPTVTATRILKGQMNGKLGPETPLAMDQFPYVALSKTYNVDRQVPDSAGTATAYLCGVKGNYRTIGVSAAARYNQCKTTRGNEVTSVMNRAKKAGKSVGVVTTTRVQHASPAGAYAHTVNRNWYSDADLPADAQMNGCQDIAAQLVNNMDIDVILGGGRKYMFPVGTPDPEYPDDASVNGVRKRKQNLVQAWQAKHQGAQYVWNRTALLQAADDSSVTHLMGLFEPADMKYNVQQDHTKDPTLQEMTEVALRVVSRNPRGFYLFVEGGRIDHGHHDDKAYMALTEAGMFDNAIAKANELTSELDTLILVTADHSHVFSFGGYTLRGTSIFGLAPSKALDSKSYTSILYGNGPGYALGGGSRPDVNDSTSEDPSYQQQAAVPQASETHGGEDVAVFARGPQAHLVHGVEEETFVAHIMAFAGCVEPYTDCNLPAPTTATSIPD

Row | Compound | inhibition [3] | other results
1 | CC1=NN(c2ccccc2)C(=O)/C1=C\c1ccccc1C(F)(F)F | – | inhibition [1]: 60%; inhibition [2]: 60%
2 | CCOC(=O)c1cccc(N2N=C(C)/C(=C/C3CCN(C(=O)OC(C)(C)C)CC3)C2=O)c1 | inactive | –
3 | CC(=O)O[C@H]1C[C@@H]2CC[C@@H]3[C@H](CC[C@@]4(C)[C@H]3C[C@H]([N+]3(C)CCCCC3)[C@@H]4OC(C)=O)[C@@]2(C)C[C@@H]1N1CCCCC1 | 34% | inhibition [4]: Dose-dependent effect; inhibition [5]: Active; Activity [6]: Active
4 | CC(=O)O[C@H]1C[C@@H]2CC[C@@H]3[C@H](CC[C@@]4(C)[C@H]3C[C@H]([N+]3(C)CCCCC3)[C@@H]4OC(C)=O)[C@@]2(C)C[C@@H]1[N+]1(C)CCCCC1 | 38% | inhibition [4]: Dose-dependent effect; inhibition [5]: Active; Activity [6]: Active
5 | CC1=NN(c2ccccc2)C(=O)/C1=C\c1ccc(S(C)(=O)=O)cc1 | inactive | –
6 | CC1=NN(c2ccccc2)C(=O)/C1=C\c1cc(C(F)(F)F)ccc1C(F)(F)F | inactive | –
7 | COc1ccc2occ(/C=C3\C(=O)N(c4cccc(C(=O)O)c4)N=C3C)c(=O)c2c1 | inactive | –
8 | CC1=NN(c2ccccc2)C(=O)/C1=C\c1ccco1 | inactive | –
9 | COc1cc(/C=C2\C(=O)N(c3cccc(C(=O)O)c3)N=C2C)cc(OC)c1O | inactive | –
10 | CCOC(=O)c1cccc(N2N=C(C)/C(=C/c3ccncc3)C2=O)c1 | inactive | –

Further lines, with some results ahead:

Row | inhibition [3] | Compound | other results
11 | inactive | CC1=NN(c2ccccc2)C(=O)/C1=C\c1cccnc1 | –
12 | inactive | CC1=NN(c2ccccc2)C(=O)/C1=C\c1ccc(O)cc1 | –
13 | inactive | CC1=NN(c2ccccc2)C(=O)/C1=C\c1ccc(C#N)cc1 | –
14 | inactive | CC1=NN(c2ccccc2)C(=O)/C1=C\c1cccc(OCc2ccccc2)c1 | –
15 | inactive | CC1=NN(c2ccccc2)C(=O)/C1=C\c1ccncc1 | –
16 | > 10% | CC1=NN(c2ccccc2)C(=O)/C1=C\c1ccccc1Cl | IC50 [7]: 33 µM
17 | > 10% | CC1=NN(c2ccccc2)C(=O)/C1=C\c1ccccc1C | inhibition [4]: Dose-dependent effect; IC50 [7]: 30 µM; inhibition [5]: inactive; Activity [8]: inactive; inhibition [9]: inactive; inhibition [10]: Active
18 | inactive | CC1=NN(c2ccccc2)C(=O)/C1=C\c1cccc(C)c1 | –
19 | inactive | CC1=NN(c2ccccc2)C(=O)/C1=C\c1ccc(C)cc1 | –
20 | inactive | CC1=NN(c2ccccc2)C(=O)/C1=C\c1ccc(Cl)cc1 | –
21 | 10% | CC1=NN(c2ccccc2)C(=O)/C1=C\c1ccccc1O | –
22 | inactive | CC1=NN(c2ccccc2)C(=O)/C1=C\c1cccc([N+](=O)[O-])c1 | –
23 | inactive | CC1=NN(c2ccccc2)C(=O)/C1=C\c1cccc(O)c1 | –
